Converted amounts (≈) assume the structure as drawn.
How the values were obtained:
Streptococcus pneumoniae [1] = assay: Antibacterial activity against erythromycin-susceptible Streptococcus pneumoniae ATCC 49619
Streptococcus pneumoniae [2] = assay: Antibacterial activity against erythromycin-resistant Streptococcus pneumoniae B1 encoded by erm gene
Streptococcus pneumoniae [3] = assay: Antibacterial activity against erythromycin-resistant Streptococcus pneumoniae A22072 encoded by mef gene
Streptococcus pneumoniae [4] = assay: Antibacterial activity against erythromycin-resistant Streptococcus pneumoniae AB11 encoded by erm and mef gene

| SMILES | MIC (Streptococcus pneumoniae [1]) [µg/mL] | MIC (Streptococcus pneumoniae [2]) [µg/mL] | MIC (Streptococcus pneumoniae [3]) [µg/mL] | MIC (Streptococcus pneumoniae [4]) [µg/mL] |
| --- | --- | --- | --- | --- |
| CC[C@H]1OC(=O)[C@H](C)[C@@H](O[C@H]2C[C@@](C)(OC)[C@@H](OC(=O)NCc3ccc(OC)cc3)[C@H](C)O2)[C@H](C)[C@@H](O[C@@H]2O[C@H](C)C[C@H](N(C)C)[C@H]2O)[C@@](C)(O)C[C@@H](C)CN(C)[C@H](C)[C@@H](O)[C@]1(C)O | 0.12 (≈ 0.132 µM) | 64 (≈ 70.2 µM) | 4 (≈ 4.39 µM) | 32 (≈ 35.1 µM) |
| CC[C@H]1OC(=O)[C@H](C)[C@@H](O[C@H]2C[C@@](C)(OC)[C@@H](OC(=O)NCc3ccc(F)cc3)[C@H](C)O2)[C@H](C)[C@@H](O[C@@H]2O[C@H](C)C[C@H](N(C)C)[C@H]2O)[C@@](C)(O)C[C@@H](C)CN(C)[C@H](C)[C@@H](O)[C@]1(C)O | < 0.03 | 4 (≈ 4.44 µM) | 0.25 (≈ 0.278 µM) | 16 (≈ 17.8 µM) |
| CC[C@H]1OC(=O)[C@H](C)[C@@H](O[C@H]2C[C@@](C)(OC)[C@@H](OC(=O)NCCc3ccccc3Cl)[C@H](C)O2)[C@H](C)[C@@H](O[C@@H]2O[C@H](C)C[C@H](N(C)C)[C@H]2O)[C@@](C)(O)C[C@@H](C)CN(C)[C@H](C)[C@@H](O)[C@]1(C)O | < 0.03 | 8 (≈ 8.6 µM) | 1 (≈ 1.07 µM) | 8 (≈ 8.6 µM) |
| CC[C@H]1OC(=O)[C@H](C)[C@@H](O[C@H]2C[C@@](C)(OC)[C@@H](OC(=O)NCCc3ccc(O)cc3)[C@H](C)O2)[C@H](C)[C@@H](O[C@@H]2O[C@H](C)C[C@H](N(C)C)[C@H]2O)[C@@](C)(O)C[C@@H](C)CN(C)[C@H](C)[C@@H](O)[C@]1(C)O | < 0.03 | 4 (≈ 4.39 µM) | 0.5 (≈ 0.548 µM) | 2 (≈ 2.19 µM) |
| CC[C@H]1OC(=O)[C@H](C)[C@@H](O[C@H]2C[C@@](C)(OC)[C@@H](OC(=O)NCc3ccccc3)[C@H](C)O2)[C@H](C)[C@@H](O[C@@H]2O[C@H](C)C[C@H](N(C)C)[C@H]2O)[C@@](C)(O)C[C@@H](C)CN(C)[C@H](C)[C@@H](O)[C@]1(C)O | < 0.03 | 16 (≈ 18.1 µM) | 0.06 (≈ 0.068 µM) | 64 (≈ 72.6 µM) |
| C=CCNC(=O)O[C@H]1[C@H](C)O[C@@H](O[C@H]2[C@H](C)[C@@H](O[C@@H]3O[C@H](C)C[C@H](N(C)C)[C@H]3O)[C@@](C)(O)C[C@@H](C)CN(C)[C@H](C)[C@@H](O)[C@](C)(O)[C@@H](CC)OC(=O)[C@@H]2C)C[C@@]1(C)OC | < 0.03 | 16 (≈ 19.2 µM) | 1 (≈ 1.2 µM) | 32 (≈ 38.5 µM) |
| CC[C@H]1OC(=O)[C@H](C)[C@@H](O[C@H]2C[C@@](C)(OC)[C@@H](OC(=O)NC(C)C)[C@H](C)O2)[C@H](C)[C@@H](O[C@@H]2O[C@H](C)C[C@H](N(C)C)[C@H]2O)[C@@](C)(O)C[C@@H](C)CN(C)[C@H](C)[C@@H](O)[C@]1(C)O | 0.12 (≈ 0.144 µM) | 128 (≈ 153 µM) | 8 (≈ 9.59 µM) | 256 (≈ 307 µM) |
| CC[C@H]1OC(=O)[C@H](C)[C@@H](O[C@H]2C[C@@](C)(OC)[C@@H](OC(=O)NCCc3ccccc3)[C@H](C)O2)[C@H](C)[C@@H](O[C@@H]2O[C@H](C)C[C@H](N(C)C)[C@H]2O)[C@@](C)(O)C[C@@H](C)CN(C)[C@H](C)[C@@H](O)[C@]1(C)O | 0.06 (≈ 0.067 µM) | 8 (≈ 8.93 µM) | 1 (≈ 1.12 µM) | 32 (≈ 35.7 µM) |
| CC[C@H]1OC(=O)[C@H](C)[C@@H](O[C@H]2C[C@@](C)(OC)[C@@H](OC(=O)NCCc3ccc4c(c3)OCO4)[C@H](C)O2)[C@H](C)[C@@H](O[C@@H]2O[C@H](C)C[C@H](N(C)C)[C@H]2O)[C@@](C)(O)C[C@@H](C)CN(C)[C@H](C)[C@@H](O)[C@]1(C)O | < 0.03 | 8 (≈ 8.51 µM) | 0.5 (≈ 0.532 µM) | 8 (≈ 8.51 µM) |
| CCCNC(=O)O[C@H]1[C@H](C)O[C@@H](O[C@H]2[C@H](C)[C@@H](O[C@@H]3O[C@H](C)C[C@H](N(C)C)[C@H]3O)[C@@](C)(O)C[C@@H](C)CN(C)[C@H](C)[C@@H](O)[C@](C)(O)[C@@H](CC)OC(=O)[C@@H]2C)C[C@@]1(C)OC | 0.12 (≈ 0.144 µM) | 64 (≈ 76.7 µM) | 4 (≈ 4.8 µM) | 64 (≈ 76.7 µM) |
| CCCCNC(=O)O[C@H]1[C@H](C)O[C@@H](O[C@H]2[C@H](C)[C@@H](O[C@@H]3O[C@H](C)C[C@H](N(C)C)[C@H]3O)[C@@](C)(O)C[C@@H](C)CN(C)[C@H](C)[C@@H](O)[C@](C)(O)[C@@H](CC)OC(=O)[C@@H]2C)C[C@@]1(C)OC | < 0.03 | 8 (≈ 9.43 µM) | 1 (≈ 1.18 µM) | 128 (≈ 151 µM) |
| CCCCCNC(=O)O[C@H]1[C@H](C)O[C@@H](O[C@H]2[C@H](C)[C@@H](O[C@@H]3O[C@H](C)C[C@H](N(C)C)[C@H]3O)[C@@](C)(O)C[C@@H](C)CN(C)[C@H](C)[C@@H](O)[C@](C)(O)[C@@H](CC)OC(=O)[C@@H]2C)C[C@@]1(C)OC | < 0.03 | 8 (≈ 9.28 µM) | 0.5 (≈ 0.58 µM) | 32 (≈ 37.1 µM) |
| CC[C@H]1OC(=O)[C@H](C)[C@@H](O[C@H]2C[C@@](C)(OC)[C@@H](OC(=O)NC3CCCCC3)[C@H](C)O2)[C@H](C)[C@@H](O[C@@H]2O[C@H](C)C[C@H](N(C)C)[C@H]2O)[C@@](C)(O)C[C@@H](C)CN(C)[C@H](C)[C@@H](O)[C@]1(C)O | 0.12 (≈ 0.137 µM) | 32 (≈ 36.6 µM) | 8 (≈ 9.15 µM) | 128 (≈ 146 µM) |
| CC[C@H]1OC(=O)[C@H](C)[C@@H](O[C@H]2C[C@@](C)(OC)[C@@H](O)[C@H](C)O2)[C@H](C)[C@@H](O[C@@H]2O[C@H](C)C[C@H](N(C)C)[C@H]2O)[C@](C)(O)C[C@@H](C)CN(C)[C@H](C)[C@@H](O)[C@]1(C)O [AZITHROMYCIN] | < 0.03 | 128 (≈ 171 µM) | 4 (≈ 5.34 µM) | 256 (≈ 342 µM) |
| CC[C@H]1OC(=O)[C@H](C)[C@@H](O[C@H]2C[C@@](C)(OC)[C@@H](O)[C@H](C)O2)[C@H](C)[C@@H](O[C@@H]2O[C@H](C)C[C@H](N(C)C)[C@H]2O)[C@](C)(OC)C[C@@H](C)C(=O)[C@H](C)[C@@H](O)[C@]1(C)O [CLARITHROMYCIN] | < 0.03 | 64 (≈ 85.6 µM) | 4 (≈ 5.35 µM) | 128 (≈ 171 µM) |

Source: ChEMBL document CHEMBL1154057, “Synthesis and antibacterial activity of novel 15-membered macrolide derivatives: 4''-carbamate, 11,12-cyclic carbonate-4''-carbamate and 11,4''-di-O-arylcarbamoyl analogs of azithromycin” (2009)
